We go through three compounds from patent US12552790B2, “Positive modulators of the muscarinic acetylcholine receptor M4” (Vanderbilt University, priority 2023, dated 2026).

For this test, the target named is T1, Human M4 (Homo sapiens, UniProt P08173).
T1 construct: expressed in transfected cells
T1 sequence (P08173 1-479): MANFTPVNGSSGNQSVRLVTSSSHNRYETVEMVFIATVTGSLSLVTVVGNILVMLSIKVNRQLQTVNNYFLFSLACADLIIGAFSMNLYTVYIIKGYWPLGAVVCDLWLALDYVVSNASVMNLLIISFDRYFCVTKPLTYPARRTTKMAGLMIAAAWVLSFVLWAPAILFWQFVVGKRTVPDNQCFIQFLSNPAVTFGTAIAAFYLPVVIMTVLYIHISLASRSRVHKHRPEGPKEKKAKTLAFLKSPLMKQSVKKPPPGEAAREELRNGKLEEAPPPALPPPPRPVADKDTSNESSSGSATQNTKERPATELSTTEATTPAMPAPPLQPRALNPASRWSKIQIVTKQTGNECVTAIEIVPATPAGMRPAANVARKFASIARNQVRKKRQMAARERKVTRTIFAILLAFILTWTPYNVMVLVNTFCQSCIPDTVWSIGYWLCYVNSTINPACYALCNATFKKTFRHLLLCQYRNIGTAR
The test can be described thus: M4 cell-based functional assay, calcium mobilization, potentiation of ACh EC20. The following applies: for Emax at 30 µM: % ACh maximum at 30 μM; for EC50: CHO-K1 hM4-Gqi5 cells, calcium flux, ACh EC20. In a few lines:
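CHO-K1 cells stably co-expressing human M4 and chimeric Gqi5, loaded with Fluo-4-AM, read by calcium fluorescence (ex 480/em 530 nm). Compound (10-point 1:3 series) added ~140 s before an EC20 ACh challenge, then EC80 ACh. Response expressed as fold over basal, normalized to maximal ACh response.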

As a reminder, the Emax is the size of the effect at its maximum, as opposed to the concentration needed. Broadly, the EC50 is the concentration at which the effect is half-maximal. `[2H]C1([2H])Oc2ccc(OC3CCN(c4nc5nn(C)c(=O)n5cc4C)CC3)cc2OC1([2H])[2H]` [Compound A6, 7-(4-((2,3-dihydrobenzo[b][1,4]dioxin-6-yl-2,2,3,3-d4)oxy)piperidin-1-yl)-2,6-dimethyl-[1,2,4]triazolo[4,3-a]pyrimidin-3(2H)-one]: the Emax at 30 µM amounted to 90% and the EC50 was determined as 7 nM.

Regarding `[2H]C1([2H])Oc2ccc(OC3CCN(c4nc5c(cc4C)C(=O)NC5)CC3)cc2OC1([2H])[2H]` [Compound 3, 2-(4-((2,3-dihydrobenzo[b][1,4]dioxin-6-yl-2,2,3,3-d4)oxy)piperidin-1-yl)-3-methyl-6,7-dihydro-5H-pyrrolo[3,4-b]pyridin-5-one], the Emax at 30 µM is 96% and the EC50 was 2 nM.

In the case of `[2H]C1([2H])Oc2ccc(OC3CCN(c4nc5nn(C)c(=O)n5c(C)c4C)CC3)cc2OC1([2H])[2H]` [Compound A10, 7-(4-((2,3-dihydrobenzo[b][1,4]dioxin-6-yl-2,2,3,3-d4)oxy)piperidin-1-yl)-2,5,6-trimethyl-[1,2,4]triazolo[4,3-a]pyrimidin-3(2H)-one], the maximal effect (Emax) at 30 µM worked out at 96% and the EC50 came to 2 nM.
